In ChEMBL document CHEMBL3885861, “Open TG-GATES”:

Species: Rattus norvegicus
Assay: Open TG-GATES - Regimen: Single
Assay type: toxicity, organism-based, Sprague-Dawley
Set-up: regimen Single, gender Male, age 6 weeks
Conditions: in vivo, po, 300 mg/kg, route gavage, dose level High; for APTT / Bas / Eos / Fbg / Hb / Ht / Lym / MCH / MCHC / MCV / Mono / Neu / PT / Plat / RBC / Ret / WBC: tissue Blood; for KIDNEY_L / KIDNEY_R / KIDNEY_TOTAL: tissue Kidney; for LIVER: tissue Liver; for A/G / ALP / ALT / AST / BUN / CRE / Ca / Cl / DBIL / GLC / IP / K / LDH / Na / PL / RALB / TBIL / TC / TG / TP / gamma-GTP: tissue Plasma

In the case of `C[C@]12CCC(=O)C=C1CC[C@@H]1[C@@H]2CC[C@@]2(C)[C@H]1CC[C@]2(C)O` [METHYLTESTOSTERONE], the TERMINAL_BW (3 h) was 199.1 g, the APTT (3 h) was 18.1 s and the Bas (3 h) was 0%. It also gave an Eos (3 h) of 0.8%, a Fbg (3 h) of 279.8 mg/dL and a Hb (3 h) of 13.1 g/dL. For the same molecule, the Ht (3 h) was 38.1%, the Lym (3 h) was 74% and the MCH (3 h) was 21.3 pg. The MCHC (3 h) was 34.4%, the MCV (3 h) was 62.1 fL and the Mono (3 h) was 3.2%. For the same molecule, the Neu (3 h) was 21.2%, the PT (3 h) was 12.9 s and the Plat (3 h) was 116.5 x10_4/uL. The RBC (3 h) was 614.2 x10_4/ul, the Ret (3 h) was 8.5% and the WBC (3 h) was 82.4 x10_2/uL. It also gave a KIDNEY_L (3 h) of 0.9 g, a KIDNEY_R (3 h) of 0.9 g and a KIDNEY_TOTAL (3 h) of 1.8 g. For the same molecule, the LIVER (3 h) was 8.5 g, the A/G (3 h) was 0.9 and the ALP (3 h) was 1496.8 IU/L. It also gave an ALT (3 h) of 40 IU/L, an AST (3 h) of 74.6 IU/L and a BUN (3 h) of 10.6 mg/dL. It also gave a CRE (3 h) of 0.2 mg/dL, a Ca (3 h) of 10.6 mg/dL and a Cl (3 h) of 105.4 meq/L. It also gave a DBIL (3 h) of 0.012 mg/dL, a GLC (3 h) of 188.2 mg/dL and an IP (3 h) of 9.6 mg/dL. The K (3 h) was 4.3 meq/L, the LDH (3 h) was 66 IU/L and the Na (3 h) was 140.8 meq/L. It also gave a PL (3 h) of 135.2 mg/dL, an RALB (3 h) of 2.5 g/dL and a TBIL (3 h) of 0.05 mg/dL. For the same molecule, the TC (3 h) was 75 mg/dL, the TG (3 h) was 41.2 mg/dL and the TP (3 h) was 5.4 g/dL. It also gave a gamma-GTP (3 h) of 1.2 IU/L, a TERMINAL_BW (6 h) of 201.8 g and an APTT (6 h) of 18.2 s. For the same molecule, the Bas (6 h) was 0%, the Eos (6 h) was 0.8% and the Fbg (6 h) was 274.8 mg/dL. The Hb (6 h) was 12.9 g/dL, the Ht (6 h) was 37.7% and the Lym (6 h) was 76.4%. It also gave an MCH (6 h) of 21.3 pg, an MCHC (6 h) of 34.3% and an MCV (6 h) of 62 fL. It also gave a Mono (6 h) of 3%, a Neu (6 h) of 19.6% and a PT (6 h) of 13.4 s. For the same molecule, the Plat (6 h) was 114.3 x10_4/uL, the RBC (6 h) was 608.4 x10_4/ul and the Ret (6 h) was 7.9%. The WBC (6 h) was 66.5 x10_2/uL, the KIDNEY_L (6 h) was 0.9 g and the KIDNEY_R (6 h) was 0.9 g. It also gave a KIDNEY_TOTAL (6 h) of 1.7 g, an LIVER (6 h) of 8.1 g and an A/G (6 h) of 0.9. For the same molecule, the ALP (6 h) was 1589.4 IU/L, the ALT (6 h) was 45 IU/L and the AST (6 h) was 77.2 IU/L. For the same molecule, the BUN (6 h) was 9 mg/dL, the CRE (6 h) was 0.2 mg/dL and the Ca (6 h) was 10.6 mg/dL. The Cl (6 h) was 107.8 meq/L, the DBIL (6 h) was 0.016 mg/dL and the GLC (6 h) was 181.8 mg/dL. The IP (6 h) was 9.6 mg/dL, the K (6 h) was 4.2 meq/L and the LDH (6 h) was 67.8 IU/L. For the same molecule, the Na (6 h) was 141.6 meq/L, the PL (6 h) was 120 mg/dL and the RALB (6 h) was 2.5 g/dL. The TBIL (6 h) was 0.054 mg/dL, the TC (6 h) was 57.8 mg/dL and the TG (6 h) was 40.8 mg/dL. The TP (6 h) was 5.4 g/dL, the gamma-GTP (6 h) was 1.2 IU/L and the TERMINAL_BW (9 h) was 203.1 g. The APTT (9 h) was 17.8 s, the Bas (9 h) was 0% and the Eos (9 h) was 1%. The Fbg (9 h) was 269.8 mg/dL, the Hb (9 h) was 12.7 g/dL and the Ht (9 h) was 37.2%. For the same molecule, the Lym (9 h) was 74.4%, the MCH (9 h) was 21.5 pg and the MCHC (9 h) was 34.1%. It also gave an MCV (9 h) of 62.9 fL, a Mono (9 h) of 2.8% and a Neu (9 h) of 21.8%. The PT (9 h) was 13.7 s, the Plat (9 h) was 105 x10_4/uL and the RBC (9 h) was 592.4 x10_4/ul. For the same molecule, the Ret (9 h) was 8.5%, the WBC (9 h) was 70.7 x10_2/uL and the KIDNEY_L (9 h) was 0.9 g. For the same molecule, the KIDNEY_R (9 h) was 0.9 g, the KIDNEY_TOTAL (9 h) was 1.8 g and the LIVER (9 h) was 8.1 g. The A/G (9 h) was 0.9, the ALP (9 h) was 1500.8 IU/L and the ALT (9 h) was 36.6 IU/L. For the same molecule, the AST (9 h) was 70.6 IU/L, the BUN (9 h) was 7.8 mg/dL and the CRE (9 h) was 0.2 mg/dL. The Ca (9 h) was 10.5 mg/dL, the Cl (9 h) was 107.6 meq/L and the DBIL (9 h) was 0.02 mg/dL. The GLC (9 h) was 182.4 mg/dL, the IP (9 h) was 10.7 mg/dL and the K (9 h) was 4.3 meq/L. For the same molecule, the LDH (9 h) was 59 IU/L, the Na (9 h) was 142.4 meq/L and the PL (9 h) was 103.2 mg/dL. For the same molecule, the RALB (9 h) was 2.5 g/dL, the TBIL (9 h) was 0.06 mg/dL and the TC (9 h) was 46.2 mg/dL. For the same molecule, the TG (9 h) was 49 mg/dL, the TP (9 h) was 5.3 g/dL and the gamma-GTP (9 h) was 1 IU/L. For the same molecule, the TERMINAL_BW (24 h) was 203 g, the APTT (24 h) was 20.8 s and the Bas (24 h) was 0%. It also gave an Eos (24 h) of 1%, a Fbg (24 h) of 267.4 mg/dL and a Hb (24 h) of 13.1 g/dL. It also gave a Ht (24 h) of 37.8%, a Lym (24 h) of 83% and an MCH (24 h) of 22 pg. For the same molecule, the MCHC (24 h) was 34.5%, the MCV (24 h) was 63.7 fL and the Mono (24 h) was 2.6%. For the same molecule, the Neu (24 h) was 13%, the PT (24 h) was 13.8 s and the Plat (24 h) was 116.9 x10_4/uL. For the same molecule, the RBC (24 h) was 593.2 x10_4/ul, the Ret (24 h) was 7.7% and the WBC (24 h) was 89.5 x10_2/uL. For the same molecule, the KIDNEY_L (24 h) was 0.9 g, the KIDNEY_R (24 h) was 0.9 g and the KIDNEY_TOTAL (24 h) was 1.8 g. The LIVER (24 h) was 10.2 g, the A/G (24 h) was 0.9 and the ALP (24 h) was 1864.8 IU/L. The ALT (24 h) was 48.8 IU/L, the AST (24 h) was 77.6 IU/L and the BUN (24 h) was 16.8 mg/dL. The CRE (24 h) was 0.2 mg/dL, the Ca (24 h) was 10.9 mg/dL and the Cl (24 h) was 107.8 meq/L. For the same molecule, the DBIL (24 h) was 0.034 mg/dL, the GLC (24 h) was 185.2 mg/dL and the IP (24 h) was 7.6 mg/dL. For the same molecule, the K (24 h) was 4.3 meq/L, the LDH (24 h) was 71 IU/L and the Na (24 h) was 142 meq/L. For the same molecule, the PL (24 h) was 126.6 mg/dL, the RALB (24 h) was 2.6 g/dL and the TBIL (24 h) was 0.032 mg/dL. It also gave a TC (24 h) of 45.4 mg/dL, a TG (24 h) of 238 mg/dL and a TP (24 h) of 5.6 g/dL. For the same molecule, the gamma-GTP (24 h) was 1.2 IU/L.
